Source: patent publication US7153495B2, “Fragrance friendly and cost effective antiperspirant actives and method of making the same” (Reheis, Inc., priority 2004, dated 2006)

How the values were obtained:
human volunteers = test: Controlled Hot Room Gravimetric Test of antiperspirant efficacy, suspension roll-on; assay type: in vivo; details: for Sweat reduction: anhydrous suspension roll-on, about 20% salt on anhydrous basis, hot room
Protocol: Aluminum zirconium octa salt of example 1 was tested for antiperspirant efficacy against most widely used aluminum zirconium tetrachlorohydrex in a suspension roll-on formulation using the standard hot room procedure. In the standard hot room procedure, human volunteers are subjected to thermal stress and gravimetric determination of the perspiration produced under the thermal stress with and without antiperspirant product applications are made. The data is subjected to analysis of covariance method described by Murphy and Levine (T. D. Murphy, et al., Analysis of Antiperspirant Efficacy Test Results, Journal of the Society of Cosmetic Chemists, Vol. 42, May 1991, pp. 167–197) and compared for percent sweat reduction capacity. Antiperspirancy tests were conducted by an outside independent lab employing “Controlled Hot Room Gravimetric Test” in conformance with FDA guidelines.
The anhydrous suspension roll-ons were prepared using an aluminum zirconium salt concentration of about 20% on an anhydrous basis (about 25% on weight basis) and approximate concentration of other ingredients were Dow Coming 245, 70.5%, Bentone 38, 2.70%, SDA Alcohol 40 (95% alcohol+5% water) 1.8%.
Aluminum zirconium tetrachlorohydrex powder used for comparison had the following chemical analysis. % Al 14.8, % Zr 14.5, % Cl 18.36, % Glycine 11.7, Al/Zr atomic ratio 3.52 and M/Cl atomic ratio of 1.36, % A.S. 77.46.
Sweat reduction values for the octa and tetra salts were 48% and 52% respectively. Results of this study established that amino acid free cost effective aluminum zirconium salts could be prepared without sacrificing efficacy.

[1] = Fragrance compatibility study (colour formation with fragrances, Macbeth Color Spectrophotometer and visual); assay type: physicochemical; details: for ΔRG @ 45° C., Average / ΔYB @ 45° C., Average: average of 14 fragrances; for ΔRG @ 45° C., Average / ΔYB @ 45° C., Average / ΔRG @ 45° C. / ΔYB @ 45° C.: four weeks at 45° C.; for ΔRG @ 45° C. / ΔYB @ 45° C.: 0.75% perfume, 20% active
Protocol: It is known that fragrances in antiperspirants can discolor over time due to the acidic nature and high transition metals concentration especially Fe, Cr, Co, Mn, Cu, and Ni. It is also known that glycine can initiate Schiff base reaction with aldehydes present in fragrances. […] Fragrance dispersions were prepared as follows: 0.75% perfume, 1.0% Arlasolve 200, 20% antiperspirant active (on an anhydrous basis), q.s. DI water. Samples were stored at 45° C. for four weeks and were analyzed for color visually as well as using Macbeth Color Spectrophotometer. Aluminum zirconium tetrachlorohydrex was compared against aluminum zirconium penta and octa salts of Examples 1 and 2. Color was measured as ΔYB (yellow blue) and ΔRG (red green) for all the fourteen fragrances and three actives.

Row | Substance | Sweat reduction (human volunteers; 37 female subjects) [%] | ΔRG @ 45° C., Average [1] | ΔYB @ 45° C., Average [1] | ΔRG @ 45° C. ([1]; fragrance AC 10278/498988) | ΔYB @ 45° C. ([1]; fragrance AC 10278/498988) | ΔRG @ 45° C. ([1]; fragrance Bell J-8381) | ΔYB @ 45° C. ([1]; fragrance Bell J-8381) | ΔRG @ 45° C. ([1]; fragrance Drom99-920) | ΔYB @ 45° C. ([1]; fragrance Drom99-920) | ΔRG @ 45° C. ([1]; fragrance FFS 52847) | ΔYB @ 45° C. ([1]; fragrance FFS 52847) | ΔRG @ 45° C. ([1]; fragrance Firm. 430–507) | ΔYB @ 45° C. ([1]; fragrance Firm. 430–507) | ΔRG @ 45° C. ([1]; fragrance Noville AN 119738) | ΔYB @ 45° C. ([1]; fragrance Noville AN 119738) | ΔRG @ 45° C. ([1]; fragrance Q-26238) | ΔYB @ 45° C. ([1]; fragrance Q-26238) | ΔRG @ 45° C. ([1]; fragrance Q-26239) | ΔYB @ 45° C. ([1]; fragrance Q-26239) | ΔRG @ 45° C. ([1]; fragrance Q-26240) | also measured
1 | aluminum zirconium tetrachlorohydrex [reference compound] | 52 | 9.48 | 11.94 | 4.67 | 7.12 | 4.69 | 7.45 | 5.55 | 9.69 | 6.48 | 8.63 | 18.73 | 20.27 | 16.50 | 16.28 | 8.67 | 11.51 | 8.24 | 12.12 | 8.68 | adverse experiences (human volunteers; in vivo): No adverse experiences; ΔYB @ 45° C. ([1]; fragrance Q-26240): 10.51; ΔRG @ 45° C. ([1]; fragrance Q-26241): 7.98; ΔYB @ 45° C. ([1]; fragrance Q-26241): 11.29; ΔRG @ 45° C. ([1]; fragrance Q-26242): 9.21; ΔYB @ 45° C. ([1]; fragrance Q-26242): 14.50; ΔRG @ 45° C. ([1]; fragrance Quest Q-14072): 14.66; ΔYB @ 45° C. ([1]; fragrance Quest Q-14072): 16.59; ΔRG @ 45° C. ([1]; fragrance SM 25105D): 9.49; ΔYB @ 45° C. ([1]; fragrance SM 25105D): 11.76; ΔRG @ 45° C. ([1]; fragrance Takasago RM 1595): 9.14; ΔYB @ 45° C. ([1]; fragrance Takasago RM 1595): 9.49
2 | aluminum zirconium octachloro-hydrate [Example 1] | 48 | 6.84 | 8.2 | 1.86 | 3.77 | 2.88 | 5.56 | 2.28 | 4.45 | 6.37 | 6.76 | 12.82 | 14.63 | 11.91 | 12.23 | 7.45 | 8.49 | 6.65 | 9.40 | 4.07 | adverse experiences (human volunteers; 37 female subjects, suspension roll-on): No adverse experiences; difference in the reduction in perspiration versus aluminum zirconium tetrachlorohydrex (human volunteers; 37 female subjects, p=0.127): no statistically significant difference; discoloration compared with tetrasalt ([1]; 14 fragrances, four weeks of shelf aging at 45° C., visual and instrumental): less discoloration; ΔYB @ 45° C. ([1]; fragrance Q-26240): 5.04; ΔRG @ 45° C. ([1]; fragrance Q-26241): 3.76; ΔYB @ 45° C. ([1]; fragrance Q-26241): 7.13; ΔRG @ 45° C. ([1]; fragrance Q-26242): 6.54; ΔYB @ 45° C. ([1]; fragrance Q-26242): 9.77; ΔRG @ 45° C. ([1]; fragrance Quest Q-14072): 10.05; ΔYB @ 45° C. ([1]; fragrance Quest Q-14072): 9.61; ΔRG @ 45° C. ([1]; fragrance SM 25105D): 8.65; ΔYB @ 45° C. ([1]; fragrance SM 25105D): 8.57; ΔRG @ 45° C. ([1]; fragrance Takasago RM 1595): 10.51; ΔYB @ 45° C. ([1]; fragrance Takasago RM 1595): 10.02
